Test results taken from patent publication US20220177476A1, “Crystal Forms of (S)-4-(8-amino-3-(1-(but-2-ynoyl)-pyrrolidin-2-yl)imidazo[1,5-a]pyrazin-1-yl)-n-(pyridin-2-yl)benzamide” (Acerta Pharma B.V., priority 2015, published 2022).
Where two headings read alike, the source gives them in different places.

Key:
Assay type in all cases: physicochemical
[1] = pKa by ultraviolet (UV) spectrometric titration; conditions: for pKa: aqueous solution
Protocol: The pKa values for Formula (1) free base were determined and used to create the speciation plot shown in FIG. 47 to illustrate the species present as the Formula (1) passes through the gastrointestinal tract. The sample pKa values were determined using an ultraviolet (UV) spectrometric technique. The sample was initially titrated in a fast-UV triple titration between pH 2-12 at concentrations of 31-19 μM, under aqueous conditions. Three pKa values, with average values of ˜3.6, ˜5.8 and ˜12.0, were determined. The sample was subsequently titrated in six titrations, under aqueous conditions over a total range of pH 1.5-12.5 at concentrations of 30-18 μM.

[2] = logP by potentiometric (pH-metric) technique, octanol/water; conditions: 25° C., 0.15 M KCl
Protocol: The logP of Formula (1) free base was determined using the potentiometric (pH-metric) technique. The sample was titrated in various ratios of octanol/water from pH 1.9-12.1 at concentrations of 1.1-0.5 mM at 25° C. in an ionic environment of 0.15 M KCl. The potentiometric data collected were used to calculate the logP of the neutral (2.03±0.01) and the cationic (−0.31±0.06) species.

[3] = Aqueous solubility of salts after three hours equilibration without pH adjustment; conditions: thermodynamic from solid, water
Protocol: Characterization of fumarate salt, maleate salt, phosphate salt and L-tartrate salt was conducted using ^1H NMR spectroscopy, TG-FTIR, DSC, dynamic vapor sorption, optical microscopy, high-performance liquid chromatography (HPLC) purity, laser diffraction, approximate bulk and tapped density, and aqueous solubility analytical techniques.

[4] = Aqueous solubility of Formula (1) free base as a function of pH
Excerpt: The aqueous solubility of Formula (1) free base was examined as a function of pH.

[5] = Water content by Karl Fischer titration
[6] = six titrations, pH 1.5-12.5, 30-18 μM, aqueous

Row | SMILES | pKa ([1]; free base, Table 9, read-out: pKa) | pKa ([1]; pH 1.5, six titrations, pH 1.5-12.5, 30-18 μM, aqueous, read-out: pKa, average value (third)) | pKa ([1]; pH 2, fast-UV triple titration, pH 2-12, 31-19 μM, aqueous, read-out: pKa, average value (first)) | pKa ([1]; pH 2, fast-UV triple titration, pH 2-12, 31-19 μM, aqueous, read-out: pKa, average value (second)) | pKa ([1]; pH 2, fast-UV triple titration, pH 2-12, 31-19 μM, aqueous, read-out: pKa, average value (third)) | pKa, average value (first) [1, 6] | pKa, average value (second) [1, 6] | logP of the neutral species [2] | logP ([2]; read-out: logP of the cationic species) | solubility at 3 h [3] [mg/mL] | solubility ([4]; aqueous HCl solution, pH 1, simulated gastric fluid, thermodynamic from solid, HCl solution having a pH of about 1, read-out: solubility in HCl solution) [mg/mL] | solubility ([4]; aqueous buffer solution, pH 5, aqueous buffer, thermodynamic from solid, effective pH at the end of the test 5.0, read-out: Solubility) [mg/mL] | solubility ([4]; aqueous buffer solution, pH 7.3, aqueous buffer, thermodynamic from solid, effective pH at the end of the test 7.3, read-out: Solubility) [mg/mL] | solubility ([4]; aqueous buffer solution, pH 8.9, aqueous buffer, thermodynamic from solid, effective pH at the end of the test 8.9, read-out: Solubility) [mg/mL] | solubility ([4]; aqueous buffer solutions, aqueous buffer, thermodynamic from solid, pH 6.7 and greater, read-out: aqueous solubility, constant level) [mg/mL] | solubility ([4]; effective pH at the end of the test 6.7) [mg/mL] | aqueous solubility, constant level ([4]; pH 6.7 and greater) | water content (% found, experimental) [5] [%]
1 | CC#CC(=O)N1CCC[C@H]1c1nc(-c2ccc(C(=O)Nc3ccccn3)cc2)c2c(N)nccn12 [Formula (1), (S)-4-(8-amino-3-(1-(but-2-ynoyl)pyrrolidin-2-yl)imidazo[1,5-α]pyrazin-1-yl)-N-(pyridin-2-yl)benzamide] | ~5.7 | 12.12 ± 0.03 | ~3.6 | ~5.8 | ~12 | 3.54±0.01 | 5.77±0.01 | 2.03±0.01 | -0.31 ± 0.06 | < 1 | ≥ 150 | 0.69 | 0.049 | 0.051 | ~0.05 | 0.056 | about 50 μg/mL | –
2 | CC#CC(=O)N1CCC[C@H]1c1nc(-c2ccc(C(=O)Nc3ccccn3)cc2)c2c(N)nccn12.O=S(=O)(O)O [sulfate salt, (S)-4-(8-amino-3-(1-(but-2-ynoyl)pyrrolidin-2-yl)imidazo[1,5-α]pyrazin-1-yl)-N-(pyridin-2-yl)benzamide sulfate] | – | – | – | – | – | – | – | – | – | – | – | – | – | – | – | – | – | 10.6
